Among the test systems are SK-MEL-2 melanoma; UACC-257 melanoma; EKVX NSCLC; SF-268 CNS; SNB-75 CNS; T-47D breast; HOP-92 NSCLC; SK-OV-3 ovarian; HCT-116 colon; OVCAR-5 ovarian.
What all share (test): DTP human tumour cell line panel, 48 h

Values joined by “and” are separate entries in the source; they are usually repeats but may differ in a detail not shown here. Equal entries are not always repeated.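 These data come from cells grown in 96-well plates and exposed to compound for 48 hours at five concentrations. The concentration for 50% growth inhibition is given as GI50. At the TGI there is no net growth.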

In the case of `Cc1ccc2c3c1[C@@H]1O[C@@H]1c1cccc(c1-3)[C@@H]1O[C@H]21`, the TGI with SK-MEL-2 melanoma amounted to 33.7 µM; with UACC-257 melanoma it was 33 µM; with EKVX NSCLC, 32.3 µM; in the experiment with SF-268 CNS, 34.1 µM; with SNB-75 CNS, 15.7 µM; with T-47D breast, 20.9 µM. For the same molecule, the concentration for total growth inhibition (TGI) is 36.8 µM with HOP-92 NSCLC, 63.9 µM with SK-OV-3 ovarian, 27.7 µM in the experiment on HCT-116 colon and 34 µM in the experiment with OVCAR-5 ovarian.

As for `N#Cc1c(-c2ccc(Cl)cc2)c2c([nH]c1=O)-c1cc([N+](=O)[O-])ccc1CCC2`, the TGI in the experiment with SK-MEL-2 melanoma is 43.4 µM; in the experiment with UACC-257 melanoma, 57 µM; in the experiment on EKVX NSCLC, 51.2 µM; in the experiment on SF-268 CNS it was 44.2 µM; in the experiment with SNB-75 CNS it was 78.3 µM; in the experiment with T-47D breast, over 100 µM. The TGI in the experiment on HOP-92 NSCLC was 38.5 µM; in the experiment on SK-OV-3 ovarian, over 100 µM; in the experiment with HCT-116 colon it was 31.9 µM; in the experiment on OVCAR-5 ovarian it was 37.6 µM.

As to `COP(=O)(OC)[C@H](O)[C@H]1C[C@@H]1c1ccccc1`, the TGI in the experiment on SK-MEL-2 melanoma, in the experiment on UACC-257 melanoma, in the experiment on EKVX NSCLC, in the experiment with SF-268 CNS, in the experiment with SNB-75 CNS and in the experiment on T-47D breast was over 100 µM throughout. Besides, the TGI in the experiment with HOP-92 NSCLC, with SK-OV-3 ovarian and in the experiment on OVCAR-5 ovarian was over 100 µM in each case.

For `NC(=O)CCSC(CC(=O)c1ccc(Cl)cc1)c1ccc(Cl)cc1` (stereo not given), the TGI was 69.2 µM in the experiment on SK-MEL-2 melanoma; over 100 µM with UACC-257 melanoma; 93.7 µM in the experiment on EKVX NSCLC; 82.1 µM in the experiment on SF-268 CNS; 90.7 µM with SNB-75 CNS; 57.3 µM in the experiment with T-47D breast. Moreover, the TGI with HOP-92 NSCLC was 45.5 µM; in the experiment on SK-OV-3 ovarian, over 100 µM; in the experiment on HCT-116 colon it was 70.4 µM; in the experiment on OVCAR-5 ovarian it was over 100 µM.

Take `CCN(CCO)CCNc1ccc(C)c2sc3ccccc3c(=O)c12`: the TGI with SK-MEL-2 melanoma came to 9.33 µM; with UACC-257 melanoma, 6.16 µM; in the experiment on EKVX NSCLC, 26.8 µM; with SF-268 CNS, 20.9 µM; in the experiment on SNB-75 CNS it was 12 µM; in the experiment with T-47D breast, 7.43 µM. For the same molecule, the TGI in the experiment with HOP-92 NSCLC came to 14.1 µM; with SK-OV-3 ovarian it was 18.1 µM; in the experiment on HCT-116 colon, 7.76 µM; in the experiment with OVCAR-5 ovarian, 12.5 µM.

With `O=c1[nH]c2cc([N+](=O)[O-])c(N/N=C/c3ccc(Cl)cc3Cl)c([N+](=O)[O-])c2[nH]1`, the TGI with SK-MEL-2 melanoma, in the experiment with UACC-257 melanoma, in the experiment on EKVX NSCLC, in the experiment with SF-268 CNS, in the experiment with SNB-75 CNS and with T-47D breast was over 100 µM in each case. Besides, the TGI in the experiment on HOP-92 NSCLC is over 100 µM; in the experiment on SK-OV-3 ovarian, 77.5 µM; with HCT-116 colon, over 100 µM; in the experiment on OVCAR-5 ovarian, over 100 µM.

In the case of `COc1ccc(N=Nc2c(N)nn(C)c2N)cc1`, the TGI in the experiment with SK-MEL-2 melanoma, in the experiment on UACC-257 melanoma, with EKVX NSCLC, in the experiment on SF-268 CNS, with SNB-75 CNS and in the experiment with HOP-92 NSCLC was over 100 µM each time. Besides, the TGI in the experiment on SK-OV-3 ovarian, in the experiment on HCT-116 colon and with OVCAR-5 ovarian was over 100 µM throughout.

For `O=C(NC(Cc1ccc(Cl)cc1)C(=O)O)c1ccc(I)cc1` (stereo not given), the TGI in the experiment on SK-MEL-2 melanoma, with UACC-257 melanoma, in the experiment with SF-268 CNS, in the experiment on SNB-75 CNS, in the experiment on HOP-92 NSCLC and in the experiment on SK-OV-3 ovarian was over 100 µM each time. Further, the TGI in the experiment on HCT-116 colon and in the experiment on OVCAR-5 ovarian was over 100 µM in each case.

In the case of `CCCCCCCCCCCCSC(=S)c1c(C)[nH]n(CCCCCCCCCCCC)c1=O`, the TGI in the experiment on SK-MEL-2 melanoma is over 100 µM; in the experiment on UACC-257 melanoma, over 100 µM; with EKVX NSCLC it was 81.1 µM; with SF-268 CNS it was over 100 µM; in the experiment with SNB-75 CNS, over 100 µM; in the experiment on SK-OV-3 ovarian, over 100 µM. In addition, the TGI in the experiment on HCT-116 colon and in the experiment on OVCAR-5 ovarian was over 100 µM in each case.

Turning to `COc1cc(C2C(=O)C(Cl)N2Nc2nc(C)cc(=O)[nH]2)cc(OC)c1OC` (stereo not given), the TGI was 25.2 µM in the experiment on SK-MEL-2 melanoma; over 100 µM in the experiment on UACC-257 melanoma; over 100 µM in the experiment on EKVX NSCLC; over 100 µM in the experiment with SF-268 CNS; 43.3 µM in the experiment with SNB-75 CNS; 37.3 µM in the experiment on HOP-92 NSCLC. Also, the results for the TGI in the experiment with HCT-116 colon and in the experiment with OVCAR-5 ovarian were 49.7 µM and over 100 µM, respectively.

Regarding `C[C@H]1CCC/C=C/[C@@H]2C[C@H](O)C[C@H]2[C@H](O)/C=C/C(=O)O1`, the GI50 was 0.0132 µM with UACC-257 melanoma; < 0.0164 µM and 0.0544 µM and 0.0447 µM with EKVX NSCLC; under 0.0103 µM in the experiment on SF-268 CNS; 0.0185 µM in the experiment with SNB-75 CNS; 0.0809 µM and 0.619 µM in the experiment on T-47D breast; 0.0361 µM and 0.0334 µM in the experiment with SK-OV-3 ovarian. Besides, the GI50 in the experiment on HCT-116 colon is 0.0115 µM and 0.056 µM; in the experiment on OVCAR-5 ovarian, 0.0857 µM. Moreover, the TGI with SF-268 CNS was over 63.3 µM; in the experiment on HCT-116 colon, 0.0478 µM and 0.0573 µM and 0.152 µM.

Consider `CN1NC(c2ccccc2)=C(C#N)C(=O)CC1c1ccc(F)cc1` (stereo not given), for which the TGI in the experiment with SK-MEL-2 melanoma, with UACC-257 melanoma, in the experiment on SF-268 CNS, with SNB-75 CNS, with HOP-92 NSCLC and in the experiment on SK-OV-3 ovarian was over 100 µM in each case. Also, the TGI in the experiment with HCT-116 colon and with OVCAR-5 ovarian was over 100 µM throughout.

As for `O=C(CSSCC(=O)OCCS(=O)(=O)Nc1ccc(Br)cc1)OCCS(=O)(=O)Nc1ccc(Br)cc1`, the TGI in the experiment with SK-MEL-2 melanoma was 79.6 µM; with UACC-257 melanoma, 44.6 µM; in the experiment with EKVX NSCLC, over 100 µM; with SF-268 CNS, 63.2 µM; in the experiment on SNB-75 CNS, 66.6 µM; with HOP-92 NSCLC, 51.5 µM. For the same molecule, the TGI in the experiment with SK-OV-3 ovarian is 89.8 µM; in the experiment with OVCAR-5 ovarian it was 84.7 µM.

For the molecule `C/C(=C\C(=N\NC(=N)N)c1ccccc1)c1ccccc1`, the TGI with SF-268 CNS stood at 2.3 µM; with SNB-75 CNS it was 17.3 µM; with T-47D breast, 2.81 µM; with HOP-92 NSCLC, 3.22 µM; in the experiment with SK-OV-3 ovarian, 15.7 µM; in the experiment on HCT-116 colon it was 1.1 µM. In the experiment with OVCAR-5 ovarian, this molecule had a TGI of 3.35 µM.

As for `CC(C)(C)c1cc(-c2nc3ccc(N4CCN(CCO)CC4)cc3[nH]2)cc(C(C)(C)C)c1O`, the GI50 in the experiment with SK-MEL-2 melanoma was 2.39 µM; in the experiment with SNB-75 CNS it was 1.21 µM; with T-47D breast, 2.86 µM; with HOP-92 NSCLC, 1.41 µM; in the experiment with SK-OV-3 ovarian, 12.7 µM. The TGI was 5.73 µM with SK-MEL-2 melanoma; 4.55 µM in the experiment with SNB-75 CNS; over 100 µM in the experiment on T-47D breast; 4.44 µM with HOP-92 NSCLC; 86.1 µM in the experiment with SK-OV-3 ovarian.

As to `Cc1cn(Cc2cn(CC3OC(n4cc(C)c(=O)[nH]c4=O)CC3O)nn2)c(=O)[nH]c1=O` (stereo not given), the TGI in the experiment on SK-MEL-2 melanoma, in the experiment on UACC-257 melanoma, in the experiment with EKVX NSCLC, with SF-268 CNS, in the experiment on SNB-75 CNS and in the experiment with T-47D breast was over 100 µM in each case. Further, the TGI in the experiment on SK-OV-3 ovarian, with HCT-116 colon and in the experiment on OVCAR-5 ovarian was over 100 µM throughout.

With `Cn1c(=O)ccc2c(=O)c3ccccc3oc21`, the TGI in the experiment with SK-MEL-2 melanoma, in the experiment with EKVX NSCLC, in the experiment with SF-268 CNS, in the experiment on T-47D breast, with HOP-92 NSCLC and in the experiment on SK-OV-3 ovarian was over 100 µM each time. Further, the total growth inhibition concentration (TGI) in the experiment with HCT-116 colon and in the experiment with OVCAR-5 ovarian was over 100 µM each time.

As for `O=c1c(-c2ccccc2)c(SCCN2CCOCC2)n(-c2ccccc2)c(=S)n1-c1ccccc1`, the TGI was over 100 µM in the experiment on SK-MEL-2 melanoma; over 100 µM in the experiment on UACC-257 melanoma; over 100 µM in the experiment on EKVX NSCLC; 87.6 µM in the experiment with SNB-75 CNS; over 100 µM in the experiment on HOP-92 NSCLC; over 100 µM with SK-OV-3 ovarian. In addition, the TGI in the experiment with OVCAR-5 ovarian is over 100 µM.

Consider `COc1cccc(NC(=O)CC(=O)NN2C(=O)/C(=C/c3ccc(N(CCC#N)CCC#N)cc3)N=C2c2cc([N+](=O)[O-])ccc2Cl)c1`, for which the TGI in the experiment on SK-MEL-2 melanoma, in the experiment on EKVX NSCLC, in the experiment with SF-268 CNS, in the experiment with HOP-92 NSCLC, in the experiment on SK-OV-3 ovarian and with HCT-116 colon was over 100 µM each time. This molecule also returned a TGI with OVCAR-5 ovarian of 72.3 µM.

`C=C1CC2C3C=C(C)C4=CC(=O)CC[C@]4(C)C3CC[C@]2(C)[C@@]1(OC(C)=O)C(C)=O` (stereo not given in full): the GI50 is over 100 µM with SK-MEL-2 melanoma; 2.1 µM in the experiment on EKVX NSCLC; 5.46 µM in the experiment on SF-268 CNS; 8.76 µM in the experiment with SNB-75 CNS; 3.38 µM with HCT-116 colon; over 100 µM in the experiment on OVCAR-5 ovarian. For the same molecule, the TGI with SK-MEL-2 melanoma, in the experiment on EKVX NSCLC, in the experiment on SF-268 CNS, with SNB-75 CNS, in the experiment on HCT-116 colon and in the experiment with OVCAR-5 ovarian was over 100 µM throughout.

Consider `CCOC(=O)/C(=C\NC(C)(C)CO)c1nc2ccccc2[nH]1`, for which the TGI in the experiment on UACC-257 melanoma, in the experiment on EKVX NSCLC, with SF-268 CNS, in the experiment on SNB-75 CNS, with HOP-92 NSCLC and in the experiment on SK-OV-3 ovarian was over 100 µM throughout. Besides, the total growth inhibition concentration (TGI) in the experiment on HCT-116 colon and with OVCAR-5 ovarian was over 100 µM throughout.

Turning to `Cc1ccc(C(=O)Nc2ncn(C3CC(O)C(CO)O3)c(=O)n2)cc1` (stereo not given), the TGI with SK-MEL-2 melanoma, in the experiment with UACC-257 melanoma, with EKVX NSCLC, in the experiment with SF-268 CNS, in the experiment on SNB-75 CNS and in the experiment with HOP-92 NSCLC was over 100 µM throughout. The TGI with SK-OV-3 ovarian, in the experiment on HCT-116 colon and with OVCAR-5 ovarian was over 100 µM each time.

For orientation: TGI means the concentration giving total growth inhibition. A higher TGI goes with lower sensitivity of the cells. As usually defined, the GI50 is the concentration giving 50% growth inhibition.

These data come from PubChem BioAssay (NCI).
